Test results reported in publication PMC7118210 (Frontiers in Pharmacology, 2020).

Assay: Multiple-dose pharmacokinetics in healthy humans
Format: in vivo, human
Method: Naringin and placebo tablets were identical in appearance and participants, care providers, and those assessing outcomes were blinded to the study drug assignment. Using the Statistical Analysis System (SAS) software (Version 9.4, SAS Institute Inc., Cary, NC, USA), subject randomization and blinding/masking were performed by statisticians from the Department of Health Statistics at the Second Military Medical University. […] Human urine samples were collected at −12~0, 0~4, 4~8, 8~12, 12~24, 24~36, 36~48, 48~60, and 60~72 h for the single-dose groups and −12~0 (Day1), −12~0 (Day7), 0~4, 4~8, 8~12, 12~24, 24~36, 36~48, 48~60, and 60~72 h (Day7) for the multiple-dose group with records of volume. Human feces were collected in storage boxes, weighed, and recorded from 12 h before administration to 72 h postadministration. […] The optimal volume and activity in unit volume of enzyme solution [0.2 M acetic acid/water solution: 0.2 M ammonium acetate/water solution, 15:35 (v/v)] were determined through a pretest of the enzyme (rat plasma, 10 μl, 10 U μl^-1; dog plasma, 10 μl, 10 U μl^-1; human plasma, 20 μl, 20 U μl^-1; human urine, 10 μl, 10 U μl^-1). After enzyme incubation, 10 μl of IS solution was added to the plasma and urine samples (2 μg ml^-1 quercetin 3-β-D-glucoside for rat and dog plasma; 583 ng ml^-1 naringin-D4 and 160 ng ml^-1 naringenin-D4 for human plasma; and 9,710 ng ml^-1 naringin-D4 and 6,000 ng ml^-1 naringenin-D4 for human urine). To each fecal sample, 9-fold methanol-normal saline (2:1, v/v) was added, mixed (18,000 rpm, 15 min) by vortexing and centrifuged (10 min, 9,000 rpm, 4°C). Next, 10 μl IS solution (971 ng ml^-1 naringin-D4 and 600 ng ml^-1 naringenin-D4) was added to the supernatants of feces (200 μl) without enzyme incubation. […] The solid material was dissolved with acetonitrile-water (1:1, v/v) and injected into the ultra high-performance liquid chromatography coupled with triple quadrupole mass spectrometry (UHPLC/MS/MS) system as described below. The analysis of nonclinical and clinical samples was performed with a UHPLC/MS/MS system that consisted of a Shimadzu Nexera X2 ultra high-performance liquid chromatography (UHPLC) (Shimadzu Corp., Kyoto, Japan) coupled with an AB Sciex API4000 triple-quadrupole mass spectrometry (MS/MS) system (AB Sciex, Foster City, CA, USA) equipped with an electrospray ionization source and controlled by Analyst (v. 1.6.2) software. […] The injection volume was 10 μl with the flow rate of 0.3 ml min^-1 for plasma, and 0.4 ml min^-1 for urine and feces. The compounds were detected by multiple reaction monitoring in the negative ion electrospray mode. The electrospray source conditions were as follows: ion source gas1 30 psi, ion source gas2 60 psi, curtain gas 20 psi, collisionally activated dissociation (CAD) gas 8 psi, temperature 500°C, and ion spray voltage −4,500 V. Zero air was used for ion source gas1 and ion source gas2 and nitrogen for curtain gas and CAD gas. […] All pharmacokinetic and excretion parameters were expressed as mean ± standard deviation (SD). All mean and SD values were reported to three significant figures. The pharmacokinetic parameters were calculated using the Phoenix WinNonlin software (Version 6.4, Pharsight Corp., Cary, NC, USA) and compared using the Student's t-test (p < 0.05) in SPSS 18.0 (SPSS Inc., Chicago, IL, USA). […] For the multiple-dose studies, pharmacokinetic parameters included the mean plasma level at steady state, Tmax, t1/2, the percent fluctuation, and the accumulation index (Table 3). […] In addition, we compared the pharmacokinetic parameters obtained from males and females (Tables 4–6).

[1] = naringin 160 mg multiple dose, human, female
[2] = naringin 160 mg multiple dose, human, male
[3] = naringin 160 mg p.o. three times a day, multiple dose, human

| SMILES | accumulation in multiple-dose study (humans) | CavSS [1] [ng/mL] | Fluctuation [1] [%] | CavSS [2] [ng/mL] | Fluctuation [2] [%] | CavSS [3] [ng/mL] | Fluctuation (naringin 160 mg p.o. three times a day, multiple dose, human, (CmaxSS−CminSS)/CavSS×100%) [%] | accumulation in multiple-dose study (in vivo) | Tmax [3] [h] |
| --- | --- | --- | --- | --- | --- | --- | --- | --- | --- |
| C[C@@H]1O[C@@H](O[C@H]2[C@H](Oc3cc(O)c4c(c3)O[C@H](c3ccc(O)cc3)CC4=O)O[C@H](CO)[C@@H](O)[C@@H]2O)[C@H](O)[C@H](O)[C@H]1O [naringin, Naringin] | no significant accumulation | 1.74 ± 0.377 | 149 ± 37.5 | 1.75 ± 0.403 | 210 ± 79.6 | 1.75 ± 0.365 | 187 ± 70.7 | – | – |
| O=C1C[C@@H](c2ccc(O)cc2)Oc2cc(O)cc(O)c21 [naringenin, Naringenin] | – | 22.6 ± 8.42 | – | 47.2 ± 47 | – | 39 ± 38.7 | – | no significant accumulation | 5.83 ± 1.17 |
